Reference: patent publication US9006221B2, “Method of modulating ship activity” (H. Lee Moffitt Cancer Center and Reserach Institute, Inc., priority 2008, dated 2015)
“Also recorded” adds a separate entry of the source.

Key:
[1] = test system: priming of allogeneic T cell responses by C57Bl6/J splenocytes; experiment: One-way mixed leukocyte reaction (MLR), stimulator splenocytes treated in vitro; type: cell-based, mouse; details: splenocytes cultured with compound 72 hr, added at 0, 24 and 48 hr
Experimental: Mean proliferation of 100K BALB/C responders as measured by ^3H-Thymidine uptake after exposure to 200K irradiated BL6 stimulators that were treated with the indicated compound, 1×DMSO or 1× EtOH prior to initiation of the mixed leukocyte reaction (MLR). 1×DMSO serves as the allogeneic MLR positive control for all compounds with the exception of HLM85321 for which 1× EtOH is the positive control. [*p<0.05, **p<0.01].
Spleen cells and lymphe node LN cells are normally robust stimulators of allogeneic T cell responses in the one-way mixed leukocyte reaction (MLR) assay, but they are very poor stimulators when obtained from mice with germline or induced SHIP-deficiency. […]
Mixed leukocyte reactions (MLR): Following RBC lysis, irradiated (2000 Rads) BL6 splenocytes (stimulators) at 8×10^5 cells/well were combined with BALB/c splenocytes (responders) at 4×10^5 cells/well in a one-way MLR assay. […] Incorporated [3H]thymidine was quantitated using a Packard TopCount NXT. Specific [3H]thymidine incorporation into genomic DNA was calculated as the average of the mean (±SEM) of sextuplicate wells. […]

human PBMC = experiment: Human one-way MLR with pre-treated PBMC stimulators; type: cell-based; details: stimulator PBMC pre-treated 24 hr with 9.4 μM
Source text: FACS quantitation of Mac1^+Gr1^+ MIR cells in spleen (A) and lymph node (B) of C57BL/6 mice treated with the SHIP1 inhibitor (Compound), vehicle (Vehicle) or unmanipulated controls (Normal) as indicated. (C) Mixed-Leukocyte-Reactions (MLR) where splenocytes from SHIP1 inhibitor-treated C57BL6 (H2b) mice were used as stimulators for BALB/C (H2d) responders. In parallel splenocytes from either unmanipulated (Normal) or Vehicle treated C57BL6 mice were used as positive controls for the MLR. […] (D) Human PBMC were pre-treated for 24 hr with 3α-aminocholestane (Compound) or vehicle, irradiated and then used as stimulators for untreated PBMC from a different donor in a one-way MLR. […] Absolute peripheral blood granulocyte numbers were determined by an automated blood cell analyzer. […]
Mixed leukocyte reactions (MLR): Following RBC lysis, irradiated (2000 Rads) BL6 splenocytes (stimulators) at 8×10^5 cells/well were combined with BALB/c splenocytes (responders) at 4×10^5 cells/well in a one-way MLR assay. […] Incorporated [3H]thymidine was quantitated using a Packard TopCount NXT. Specific [3H]thymidine incorporation into genomic DNA was calculated as the average of the mean (±SEM) of sextuplicate wells. […]

Row | SMILES | ability of splenocytes to prime allogeneic T cell responses by BALB/C responders (3H-thymidine uptake) [1] | ability of pre-treated human PBMC to prime allogeneic responses by T cells from an unrelated donor (human PBMC)
1 | OC(c1cc(-c2ccccc2)nc2c1ccc1ccccc12)C1CCCCN1 (centres unmarked) [NSC13480, (2-phenylbenzo[h]quinolin-4-yl)-piperidin-2-ylmethanol] | significantly inhibited; also recorded: complete inability to prime allogeneic T cell responses | 
2 | CC(C)CCC[C@@H](C)[C@H]1CC[C@H]2[C@@H]3CC[C@H]4C[C@H](N)CC[C@]4(C)[C@H]3CC[C@]12C [NSC23922, (3R,5S,8R,9S,10S,13R,14S,17R)-10,13-dimethyl-17-[(2R)-6-methylheptan-2-yl]-2,3,4,5,6,7,8,9,11,12,14,15,16,17-tetradecahydro-1H-cyclopenta[a]phenanthren-3-amine] |  | significantly reduces
